This note sets out measurements from patent publication US9714247B2, “Multiple kinase pathway inhibitors” (Mannkind Corporation, priority 2012, dated 2017).

Molecules are shown by their SMILES. pEC50, pIC50: −log10 of the molar value. Read-outs that look alike come from different tables or passages of the source.

The test system of test [1] is DoHH2. Briefly: CellTiter-Glo proliferation/viability assay. Particulars: Homo sapiens, DOHH-2. In kind it is cell-based, human.
Test [2] has as its system Ramos. As to the kind of experiment: CellTiter-Glo proliferation/viability assay. In kind it is cell-based, human. The note with it: Homo sapiens, Ramos, read-out: Ramos EC50.
Test [3] has as its system DoHH2 cells. The note with it: treated 24 hours.
In test [4] the target is T1, Src (Homo sapiens (Human), UniProt P12931). Briefly: biochemical.
T1 sequence (P12931 whole entry, looked up): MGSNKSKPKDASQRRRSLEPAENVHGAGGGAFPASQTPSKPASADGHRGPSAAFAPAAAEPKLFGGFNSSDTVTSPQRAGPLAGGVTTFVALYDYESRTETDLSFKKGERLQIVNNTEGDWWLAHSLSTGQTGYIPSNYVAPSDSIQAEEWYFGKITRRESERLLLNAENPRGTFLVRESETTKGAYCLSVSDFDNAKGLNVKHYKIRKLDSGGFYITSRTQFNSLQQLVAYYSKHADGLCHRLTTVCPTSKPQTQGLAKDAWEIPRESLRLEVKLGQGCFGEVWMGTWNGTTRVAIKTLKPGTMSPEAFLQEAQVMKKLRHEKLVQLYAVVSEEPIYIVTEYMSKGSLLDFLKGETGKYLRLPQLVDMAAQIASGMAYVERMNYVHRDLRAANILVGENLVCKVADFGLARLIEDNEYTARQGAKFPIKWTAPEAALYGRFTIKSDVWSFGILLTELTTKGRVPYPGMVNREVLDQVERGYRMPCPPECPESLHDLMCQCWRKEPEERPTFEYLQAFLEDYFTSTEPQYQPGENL
Test [5] deals with T2, Lyn (Homo sapiens (Human), UniProt P07948). Briefly: biochemical.
T2 sequence (P07948 whole entry): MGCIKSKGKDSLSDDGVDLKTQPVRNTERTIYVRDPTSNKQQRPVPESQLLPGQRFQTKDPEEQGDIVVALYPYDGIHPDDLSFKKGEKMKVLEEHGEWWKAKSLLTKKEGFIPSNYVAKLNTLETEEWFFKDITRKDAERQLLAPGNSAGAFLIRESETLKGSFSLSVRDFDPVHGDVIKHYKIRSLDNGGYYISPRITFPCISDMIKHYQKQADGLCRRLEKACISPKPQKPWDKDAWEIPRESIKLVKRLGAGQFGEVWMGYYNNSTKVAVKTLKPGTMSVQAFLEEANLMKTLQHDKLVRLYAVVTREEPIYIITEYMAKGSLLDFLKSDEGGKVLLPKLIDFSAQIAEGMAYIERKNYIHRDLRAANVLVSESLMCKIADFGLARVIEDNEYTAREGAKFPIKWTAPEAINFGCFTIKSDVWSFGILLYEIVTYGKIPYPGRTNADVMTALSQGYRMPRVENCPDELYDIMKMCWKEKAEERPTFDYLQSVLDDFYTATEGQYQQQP
Test [6] has as its target BTK (Homo sapiens (Human), UniProt Q06187).
For test [7], the target named is T1, Src. Particulars: read-out: Src IC50.
Test [8] addresses T2, Lyn. The note with it: read-out: Lyn IC50.
Test [9] has as its system PLCγ2 phosphorylation in Ramos cells. Briefly: PLCγ2 phosphorylation by flow cytometry. In kind it is cell-based, human. Particulars: Homo sapiens, flow cytometry, anti-phospho PLCγ2 (Tyr1217), four concentrations, read-out: Inhibition of phosphorylation of PLC-γ2 EC50. As to the method:
Ramos cells were cultured in RPMI 1640 media with 10% FBS and were starved overnight (18 h) in 1% FBS containing media and on the next day pretreated with inhibitor for 2 h before stimulation. Cells were stimulated to induce BTK network dependent signal transduction pathways using mouse anti-human IgM (final concentration 10 ug/ml; Invitrogen) antibodies and 3.3 mM H2O2 mixture for 2 minutes followed by F(Ab) fragment that cross-linked the anti-IgM antibody (final concentration 10 ug/ml), and 3.3 mM H2O2 for 8 minutes. Cell lysates were prepared in lysis buffer containing protease and phosphatase inhibitors, quantified using the BCA protein assay kit (Pierce) and used for Western blotting. Antibodies specifically targeted to the molecules of interest, PLCγ2 phosphorylated at Tyr1217 and total PLCγ2, (Cell Signaling Technology) were used in a standard Western blotting procedure.
PLCγ2 phosphorylation was also assessed by flow cytometry. Cells were similarly stimulated and following stimulation, Cytofix buffer (Becton Dickinson) was added, cells were centrifuged and the cell pellets incubated on ice with Phosflow perm buffer III (Becton Dickinson). These cell pellets were washed with Perm/Wash buffer (Becton Dickinson); resuspended and labeled for flow cytometry analysis in a staining mixture containing Perm/Wash buffer and PE-labeled anti-phosphoPCLγa2 (Tyr1217) antibody (Becton Dickinson). The samples were washed with Perm/Wash buffer and analyzed on a FACS Calibur flow cytometer using CellQuest Pro software. As mentioned for the Western blot experiments, phosphorylation of PLCγ2 at Tyr1217 along with Tyr753, Tyr759 and Tyr1197 is correlated with increased PLCγ2 activity. The readout for BTK network signaling was inhibition of phosphorylation of PLCγ2. Cells were gated to exclude dead or dying cells. Fluorescence signals from the antibody staining were plotted in logarithmic units and data was analyzed using Cellquest Pro software. […] An ED50 was calculated based on the geometric mean of fluorescence intensity observed for treatment for four different concentrations of the inhibitors (see Table 7 and FIG. 6). […] Thus treatment with amino naphthyridinones inhibits PLCγ2 phosphorylation consistent with inhibition of BTK and/or LYN activity.
Following stimulation, cells were prepared for analysis by flow cytometry as described above. In short, cells were fixed and permeabilized using Cytofix buffer, Phosflow perm buffer and Perm/Wash buffer (Becton Dickinson). The cells were stained with PE-labeled anti-phosphoPCLγ2 (Tyr759) antibody (Becton Dickinson) and analyzed on a FACS Calibur flow cytometer using CellQuest Pro software. […] Thus aminonaphthyridinones are useful for the indirect inhibition of PLCγ2 phosphorylation.

The mark [10] stands for this setting: Table 4, DoHH2 cells, read-out: EC50 (Proliferation).

Chain of BTK (Q06187 whole entry): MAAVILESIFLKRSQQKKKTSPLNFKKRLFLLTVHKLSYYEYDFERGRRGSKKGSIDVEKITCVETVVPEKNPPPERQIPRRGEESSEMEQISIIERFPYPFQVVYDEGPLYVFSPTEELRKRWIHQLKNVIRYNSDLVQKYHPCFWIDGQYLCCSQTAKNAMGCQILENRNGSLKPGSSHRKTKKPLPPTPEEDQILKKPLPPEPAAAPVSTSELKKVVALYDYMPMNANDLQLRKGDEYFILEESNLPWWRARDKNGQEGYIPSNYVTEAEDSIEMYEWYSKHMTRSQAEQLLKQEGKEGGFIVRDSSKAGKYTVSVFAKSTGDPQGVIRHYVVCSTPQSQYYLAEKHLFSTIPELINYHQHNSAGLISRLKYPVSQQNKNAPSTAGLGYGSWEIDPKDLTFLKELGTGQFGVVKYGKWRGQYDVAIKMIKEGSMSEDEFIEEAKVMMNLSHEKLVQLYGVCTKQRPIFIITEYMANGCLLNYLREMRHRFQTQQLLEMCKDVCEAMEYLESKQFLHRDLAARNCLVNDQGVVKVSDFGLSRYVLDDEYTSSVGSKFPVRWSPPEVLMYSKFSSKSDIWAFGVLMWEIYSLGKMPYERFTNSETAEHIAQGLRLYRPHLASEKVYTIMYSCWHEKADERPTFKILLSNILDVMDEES

With `CCn1c(=O)c(-c2ccccc2)cc2cnc(Nc3ncc(C)s3)cc21` [Compound 8, 1-Ethyl-7-(5-methyl-thiazol-2-ylamino)-3-phenyl-1H-[1,6]naphthyridin-2-one], the pEC50 in [1] (48 hrs, read-out: DoHH2 EC50) was below 5.00; in test [1] (setting [10]), below 5.00; in test [2] (48 h) it was below 5.00. For the same compound, the “Effect on Cell Cycle” value in test [3] is “No Arrest”. Also, the results for the pIC50 in test [4], in [5] and in [6] were 5.30 to 6.00, 6.00 to 7.00 and 5.30 to 6.00, respectively.
On to `CCN(CC)CCOc1ccc(Nc2cc3c(cn2)cc(-c2ccccc2)c(=O)n3C2CCOC2)nc1` (stereo not drawn) [Compound 17, 7-((5-(2-(diethylamino)ethoxy)pyridin-2-yl)amino)-3-phenyl-1-(tetrahydrofuran-3-yl)-1,6-naphthyridin-2(1H)-one], for which the pEC50 in test [1] (48 hrs, read-out: DoHH2 EC50) is above 6.00; in test [1] (setting [10]) it was above 6.00; in test [2] (48 h) it was 5.00 to 6.00. Further, the “Effect on Cell Cycle” value in [3] is “G1 Arrest”. Moreover, the pIC50 was 6.00 to 7.00 in test [4], 6.00 to 7.00 in test [5] and 5.30 to 6.00 in test [6].
Take `CCc1cc2cnc(Nc3ccc(C)cn3)cc2n(CC)c1=O` [Compound 19, 1,3-Diethyl-7-(5-methyl-pyridin-2-ylamino)-1H-[1,6]naphthyridin-2-one]: the pEC50 was 5.00 to 6.00 in test [1] (48 hrs, read-out: DoHH2 EC50); 5.00 to 6.00 in test [1] (setting [10]); 5.00 to 6.00 in test [2] (48 hrs). Further, the pIC50 was below 5.30 in test [7], below 5.30 in test [8] and 6.00 to 7.00 in test [6]. The “Effect on Cell Cycle” value in [3] is recorded as “No Arrest”.
On to `CCn1c(=O)c(-c2ccccc2)cc2cnc(Nc3ccc(F)cn3)cc21` [Compound 28, 1-Ethyl-7-(5-fluoro-pyridin-2-ylamino)-3-phenyl-1H-[1,6]naphthyridin-2-one], for which the pEC50 is 5.00 to 6.00 in test [1] (48 hrs, read-out: DoHH2 EC50); 5.00 to 6.00 in [1] (setting [10]); 5.00 to 6.00 in test [2] (48 hrs). Also, the pIC50 in test [7], in test [8] and in test [6] (read-out: BTK IC50) was below 5.30 each time. In addition, the “Effect on Cell Cycle” value in [3] is “No Arrest”.
Take `CCn1c(=O)c(-c2ccccc2F)cc2cnc(Nc3ccc(C)cn3)cc21` [Compound 35, 1-ethyl-3-(2-fluorophenyl)-7-(5-methylpyridin-2-ylamino)-1,6-naphthyridin-2(1H)-one]: the pEC50 in [1] (48 hrs, read-out: DoHH2 EC50) is above 6.00; in [1] (setting [10]), above 6.00; in test [2] (48 h), below 5.00. The values for the pIC50 in test [8], in test [4] and in test [6] were above 7.00, 6.00 to 7.00 and 6.00 to 7.00, respectively. The “Effect on Cell Cycle” value in test [3] is “G1 Arrest”.
In the case of `CCn1c(=O)c(-c2ccccc2)cc2cnc(Nc3nccs3)cc21` [Compound 42, 1-Ethyl-3-phenyl-7-(thiazol-2-ylamino)-1H-[1,6]naphthyridin-2-one], the pEC50 is above 6.00 in test [1] (48 hrs, read-out: DoHH2 EC50); above 6.00 in test [1] (setting [10]); above 6.00 in test [2] (48 hrs). In addition, the pIC50 was below 5.30 in [8], 5.30 to 6.00 in test [4] and 5.30 to 6.00 in [6]. Also, the “Effect on Cell Cycle” value in [3] was “G2 Arrest”.
With `CCN(CC)CCOc1ccc(Nc2cc3c(cn2)cc(C(C)C)c(=O)n3C2CCC2)nc1` [Compound 47, 1-Cyclobutyl-7-[5-(2-diethylamino-ethoxy)-pyridin-2-ylamino]-3-isopropyl-1H-[1,6]naphthyridin-2-one], in [3], the “Effect on Cell Cycle” value is on record as “G1 Arrest”.
As for `CCn1c(=O)c(-c2ccccc2)cc2cnc(Nc3ccc(O)cn3)cc21` [Compound 52, 1-Ethyl-7-(5-hydroxy-pyridin-2-ylamino)-3-phenyl-H-[1,6]naphthyridin-2-one], the pEC50 in test [1] (48 hrs, read-out: DoHH2 EC50) is 5.00 to 6.00; in [1] (setting [10]) it was 5.00 to 6.00; in test [2] (48 hrs), below 5.00. Moreover, the pIC50 in test [7] is above 7.00; in test [8], 6.00 to 7.00; in test [5] it was 6.00 to 7.00; in [6], 6.00 to 7.00; in test [6] (read-out: BTK IC50), 6.00 to 7.00. The “Effect on Cell Cycle” value in test [3] is recorded as “G1 Arrest”.
With `CCn1c(=O)c(-c2ccccc2)cc2cnc(Nc3ccc(NCCO)cn3)cc21` [Compound 66, 1-Ethyl-7-[5-(2-hydroxy-ethylamino)-pyridin-2-ylamino]-3-phenyl-1H-[1,6]naphthyridin-2-one], the pEC50 in [1] (48 hrs, read-out: DoHH2 EC50) was above 6.00; in test [1] (setting [10]), above 6.00; in test [2] (48 h), 5.00 to 6.00. Moreover, the results for the pIC50 in test [7], in test [8] and in test [6] were above 7.00, above 7.00 and 6.00 to 7.00, respectively. Moreover, in [3], the “Effect on Cell Cycle” value is given as “G1 Arrest”.
Regarding `CCn1c(=O)c(-c2ccccc2)cc2cnc(Nc3ccc(NCCN(C)C)cn3)cc21` [Compound 67, 7-[5-(2-Dimethylamino-ethylamino)-pyridin-2-ylamino]-1-ethyl-3-phenyl-1H-[1,6]naphthyridin-2-one], the pEC50 was above 6.00 in test [1] (48 hrs, read-out: DoHH2 EC50); above 6.00 in test [1] (setting [10]); 5.00 to 6.00 in [2] (48 hrs). Further, the pIC50 was above 7.00 in [8] and 5.30 to 6.00 in test [4]. Also, the “Effect on Cell Cycle” value in [3] was “G1 Arrest”.
Consider `CCn1c(=O)c(C(C)(C)O)cc2cnc(Nc3ccc(C)cn3)cc21` [Compound 69], for which the pEC50 in test [1] (48 hrs, read-out: DoHH2 EC50) is below 5.00; in test [1] (setting [10]), below 5.00; in test [2] (48 hrs) it was below 5.00. Moreover, the pIC50 in [7] was above 7.00; in test [8], below 5.30; in test [6] (read-out: BTK IC50), below 5.30. In test [3], the “Effect on Cell Cycle” value is listed as “No Arrest”.
`O=c1c(-c2c(F)cccc2F)cc2cnc(Nc3ccc(F)cn3)cc2n1C1CCCC1` [Compound 77, 1-cyclopentyl-3-(2,6-difluorophenyl)-7-((5-fluoropyridin-2-yl)amino)-1,6-naphthyridin-2(1H)-one]: the pEC50 was above 6.00 in [1] (48 hrs, read-out: DoHH2 EC50); above 6.00 in [1] (setting [10]); below 5.00 in test [2] (48 hrs). Moreover, the pIC50 in [7] and in test [8] was above 7.00 in each case. The “Effect on Cell Cycle” value in [3] is recorded as “G1 Arrest”.
As for `CN1CCC(n2c(=O)c(-c3c(F)cccc3F)cc3cnc(Nc4ccc(F)cn4)cc32)CC1` [Compound 79, 3-(2,6-difluorophenyl)-7-((5-fluoropyridin-2-yl)amino)-1-(1-methylpiperidin-4-yl)-1,6-naphthyridin-2(1H)-one], the pEC50 was above 6.00 in test [1] (48 hrs, read-out: DoHH2 EC50); above 6.00 in test [1] (setting [10]); 5.00 to 6.00 in [2] (48 hrs). Moreover, the pIC50 is 5.59 in test [7] and above 7.00 in test [8]. Also, the “Effect on Cell Cycle” value in test [3] is “G1 Arrest”.
For the compound `O=c1c(-c2c(F)cccc2F)cc2cnc(Nc3ccc(F)cn3)cc2n1C1CCOC1` (stereo not drawn) [Compound 83, 3-(2,6-difluorophenyl)-7-((5-fluoropyridin-2-yl)amino)-1-(tetrahydrofuran-3-yl)-1,6-naphthyridin-2(1H)-one], the pEC50 in [1] (48 hrs, read-out: DoHH2 EC50) is above 6.00; in test [2] (48 h), 5.00 to 6.00; in test [9], 6.35. The pIC50 in [7] and in test [8] was above 7.00 throughout.
`CCn1c(=O)c(I)cc2cnc(Nc3ccc(C)cn3)cc21` [Compound 89]: the pEC50 was above 6.00 in test [1] (48 hrs, read-out: DoHH2 EC50); above 6.00 in test [1] (setting [10]); above 6.00 in test [2] (48 hrs). Further, the pIC50 in test [7], in test [8] and in test [6] (read-out: BTK IC50) was below 5.30 throughout. Moreover, in test [3], the “Effect on Cell Cycle” value was “G1 Arrest”.
